Laboratory results reported in patent US12479820B2, “Pyridin-3-yl derivatives” (Idorsia Pharmaceuticals Ltd, priority 2019, dated 2025).

Molecular target: T1, human LPA1 receptor (Homo sapiens, UniProt Q92633)
T1 construct: TEV protease site; Gal4-VP16 transcription factor; host or cells: Tango EDG2-bla U2OS cells
Experiment: Beta-arrestin recruitment assay to determine IC50 values for human LPAR1
Type: cell-based
Conditions: Tango EDG2-bla U2OS cells, antagonist assay, LPA 18:1 500 nM final
Text: Beta-Arrestin Recruitment Assay to Determine IC50 Values for Human LPAR1
The Tango™ EDG2-bla U2OS cells are obtained from Invitrogen. These cells contain the human LPA1 receptor cDNA linked to a TEV protease site and a Gal4-VP16 transcription factor integrated into the Tango™ GPCR-bla U2OS parental cell line. This parental cell line stably expresses a beta-arrestin/TEV protease fusion protein and the beta-lactamase (bla) reporter gene under the control of a UAS response element. Upon LPA (agonist) binding, LPA1 receptor gets activated, leading to arrestin-protease recruitment and proteolytic release of the transcription factor: The transcription factor then regulates transcription of a beta-lactamase reporter construct, which is measured upon addition of the live-cell substrate.
10′000 Tango™ EDG2-bla U2OS cells are seeded in a 384-well black with clear bottom plate in 30 μl Freestyle 293 Expression Medium (Invitrogen) and incubated for 20 h at 37° C., 5% CO2. For antagonist assays, 5 μl of test compound (dilution series in DMSO/Freestyle 293 Expression medium/0.1% fatty acid free BSA (Sigma)) or buffer control are added per well and incubated for 30 min at 37° C., 5% CO2. 5 μl of LPA 18:1 (500 nM final) (solution in Freestyle 293 Expression medium/0.1% fatty acid free BSA (Sigma)) are added per well and the plate incubated for 16 h at 37° C., 5% CO2. Cells are then loaded with LiveBLAzer-FRET™ B/G Substrate (Invitrogen) for 2 h in the dark and the fluorescence emission at 460 nm and 530 nm is measured using the SynergyMx reader (BioTek). Following the background subtraction from both channels, the 460/530 nm emission ratio for each well is calculated, then plotted and fitted to a 4-parameter logistic function to obtain IC50 values. IC50 is the concentration of antagonist inhibiting 50% of the maximal response.

T1 sequence (Q92633 whole entry, the tested form may be a part): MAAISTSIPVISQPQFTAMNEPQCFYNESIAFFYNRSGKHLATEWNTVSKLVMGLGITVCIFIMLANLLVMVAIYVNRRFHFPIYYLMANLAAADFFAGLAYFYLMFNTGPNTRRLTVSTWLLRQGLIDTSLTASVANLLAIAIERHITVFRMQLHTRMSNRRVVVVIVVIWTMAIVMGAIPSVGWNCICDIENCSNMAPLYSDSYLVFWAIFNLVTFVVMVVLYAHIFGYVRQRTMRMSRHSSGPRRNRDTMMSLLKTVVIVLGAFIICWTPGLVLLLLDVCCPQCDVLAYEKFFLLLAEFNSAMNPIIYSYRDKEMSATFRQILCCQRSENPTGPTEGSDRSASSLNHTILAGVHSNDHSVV

Row | Compound | IC50 [nM]
1 | COc1cc(Cl)ncc1NC(=O)C1(c2ccccc2C(C)C)CN(CCC(C)(C)C(=O)O)C1 [Example 18-17, 4-(3-((6-chloro-4-methoxypyridin-3-yl)carbamoyl)-3-(2-isopropylphenyl)azetidin-1-yl)-2,2-dimethylbutanoic acid] | 27
2 | CCOc1cc(Cl)ncc1NC(=O)C1(c2ccccc2C(C)C)CN(CCC(C)(C)C(=O)OC)C1 [Example 18-18, methyl 4-(3-((6-chloro-4-ethoxypyridin-3-yl)carbamoyl)-3-(2-isopropylphenyl)azetidin-1-yl)-2,2-dimethylbutanoate] | 142
3 | CCOc1cc(Cl)ncc1NC(=O)C1(c2ccccc2C(C)C)CN(CCC(C)(C)C(=O)O)C1 [Example 18-19, 4-(3-((6-chloro-4-ethoxypyridin-3-yl)carbamoyl)-3-(2-isopropylphenyl)azetidin-1-yl)-2,2-dimethylbutanoic acid] | 21
4 | CC(C)Oc1cc(Cl)ncc1NC(=O)C1(c2ccccc2C(C)C)CN(CCC(C)(C)C(=O)O)C1 [Example 18-20, 4-(3-((6-chloro-4-isopropoxypyridin-3-yl)carbamoyl)-3-(2-isopropylphenyl)azetidin-1-yl)-2,2-dimethylbutanoic acid] | 16
5 | COC(=O)C(C)(C)CCN1CCC(C(=O)Nc2cnc(Cl)cc2OC)(c2ccccc2C(C)C)CC1 [Example 18-21, methyl 4-(4-((6-chloro-4-methoxypyridin-3-yl)carbamoyl)-4-(2-isopropylphenyl)piperidin-1-yl)-2,2-dimethylbutanoate] | 19
6 | COc1cc(Cl)ncc1NC(=O)C1(c2ccccc2C(C)C)CCN(CCC(C)(C)C(=O)O)CC1 [Example 18-22, 4-(4-((6-chloro-4-methoxypyridin-3-yl)carbamoyl)-4-(2-isopropylphenyl)piperidin-1-yl)-2,2-dimethylbutanoic acid] | 79
7 | COc1cc(Br)ncc1NC(=O)C1(c2ccccc2C(C)C)CN(CCC(C)(C)C(=O)O)C1 [Example 18-23, 4-(3-((6-bromo-4-methoxypyridin-3-yl)carbamoyl)-3-(2-isopropylphenyl)azetidin-1-yl)-2,2-dimethylbutanoic acid] | 56
8 | CCOC(=O)C(C)(C)CCCN1CC(C(=O)Nc2cnc(Cl)cc2OC)(c2ccccc2C(C)C)C1 [Example 18-24, ethyl 5-(3-((6-chloro-4-methoxypyridin-3-yl)carbamoyl)-3-(2-isopropylphenyl)azetidin-1-yl)-2,2-dimethylpentanoate] | 156
9 | COc1cc(Cl)ncc1NC(=O)C1(c2ccccc2C(C)C)CN(CCCC(C)(C)C(=O)O)C1 [Example 18-25, 5-(3-((6-chloro-4-methoxypyridin-3-yl)carbamoyl)-3-(2-isopropylphenyl)azetidin-1-yl)-2,2-dimethylpentanoic acid] | 47
10 | CCOC(=O)C(C)(C)CCCN1CC(C(=O)Nc2cnc(Cl)cc2OCC)(c2ccccc2C(C)C)C1 [Example 18-26, ethyl 5-(3-((6-chloro-4-ethoxypyridin-3-yl)carbamoyl)-3-(2-isopropylphenyl)azetidin-1-yl)-2,2-dimethylpentanoate] | 72
11 | CCOc1cc(Cl)ncc1NC(=O)C1(c2ccccc2C(C)C)CN(CCCC(C)(C)C(=O)O)C1 [Example 18-27, 5-(3-((6-chloro-4-ethoxypyridin-3-yl)carbamoyl)-3-(2-isopropylphenyl)azetidin-1-yl)-2,2-dimethylpentanoic acid] | 21
12 | COc1cc(Cl)ncc1NC(=O)C1(c2ccccc2C(C)C)CN(CCNS(N)(=O)=O)C1 [Example 18-28, N-(6-chloro-4-methoxypyridin-3-yl)-3-(2-isopropylphenyl)-1-(2-(sulfamoylamino)ethyl)azetidine-3-carboxamide] | 17
13 | COc1cc(Cl)ncc1NC(=O)C1(c2ccccc2C(C)C)CN(C(=O)CCO)C1 [Example 19-1, N-(6-chloro-4-methoxypyridin-3-yl)-1-(3-hydroxypropanoyl)-3-(2-isopropylphenyl)azetidine-3-carboxamide] | 127
